We go through 1 compound from US20240368164A1, “PURINE NUCLEOSIDES, THEIR INTERMEDIATES, AND METHODS OF PREPARATION THEREOF” (Astrocyle Pharmaceuticals, Inc., priority 2021, published 2024).

Data set [1] can be described thus: Nonspecific brain tissue binding (free fraction). The data set is classed as in vitro ADME, mouse. An excerpt: Example 3 of U.S. Pat. No. 9,789,131, which is incorporated herein by reference, describes assays for determining the plasma and brain free fraction of certain compounds such as I-1. Compounds described herein may be evaluated using such assays or similar variants thereof.

Data set [2] concerns the target T1, Human A3R (Homo sapiens, UniProt P0DMS8).
T1 construct: expressed in transfected cells
T1 sequence (P0DMS8 1-318): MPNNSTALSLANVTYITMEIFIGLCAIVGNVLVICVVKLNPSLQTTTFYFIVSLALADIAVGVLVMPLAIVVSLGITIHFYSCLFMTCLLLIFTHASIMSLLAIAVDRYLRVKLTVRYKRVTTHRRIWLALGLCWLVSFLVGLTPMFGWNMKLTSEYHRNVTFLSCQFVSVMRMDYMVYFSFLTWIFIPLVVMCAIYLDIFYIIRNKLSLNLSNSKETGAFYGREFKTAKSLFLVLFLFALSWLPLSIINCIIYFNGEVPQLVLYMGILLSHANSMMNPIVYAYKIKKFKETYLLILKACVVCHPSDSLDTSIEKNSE
Nature of the data set: Radioligand binding at human A3 adenosine receptor ([125I]I-AB-MECA, CHO cell membranes). As to conditions: n = 1; read-out: Affinity (nM) at Human A3R. How it is done:
[3H]R—N^6-Phenylisopropyladenosine ([3H]R-PIA, 63 Ci/mmol), [^3H](2-[p-(2-carboxyethyl)phenyl-ethylamino]-5′-N-ethylcarboxamido-adenosine) ([^3H]CGS21680, 40.5 Ci/mmol) and [^125I]N^6-(4-amino-3-iodobenzyl)adenosine-5′-N-methyluronamide ([^125I]I-AB-MECA, 2200 Ci/mmol) were purchased from Perkin-Elmer Life and Analytical Science (Boston, MA). Test compounds were prepared as 5 mM stock solutions in DMSO and stored frozen.
Cell Culture and Membrane Preparation—CHO cells stably expressing the recombinant hA1 and hA3ARs and HEK293 cells stably expressing the hA2AAR were cultured in Dulbecco's modified Eagle medium (DMEM) and F12 (1:1) supplemented with 10% fetal bovine serum, 100 units/mL penicillin, 100 μg/mL streptomycin, and 2 μmol/mL glutamine. In addition, 800 μg/mL geneticin was added to the A2A media, while 500 μg/mL hygromycin was added to the A1 and A3 media. After harvesting, cells were homogenized and suspended in PBS. Cells were then centrifuged at 240 g for 5 min, and the pellet was resuspended in 50 mM Tris-HCl buffer (pH 7.5) containing 10 mM MgCl2. The suspension was homogenized and was then ultra-centrifuged at 14,330 g for 30 min at 4° C. The resultant pellets were resuspended in Tris buffer, incubated with adenosine deaminase (3 units/mL) for 30 min at 37° C. The suspension was homogenized with an electric homogenizer for 10 sec, pipetted into 1 mL vials and then stored at −80° C. until the binding experiments. The protein concentration was measured using the BCA Protein Assay Kit from Pierce Biotechnology, Inc. (Rockford, IL).
Binding assays: Into each tube in the binding assay was added 50 μL of increasing concentrations of the test ligand in Tris-HCl buffer (50 mM, pH 7.5) containing 10 mM MgCl2, 50 μL of the appropriate agonist radioligand, and finally 100 μL of membrane suspension. For the A1AR (22 μg of protein/tube) the radioligand used was [^3H]R-PIA (final concentration of 3.5 nM). For the A2AAR (20 μg/tube) the radioligand used was [^3H]CGS21680 (10 nM). For the A3AR ([…]) the radioligand used was [^125I]I-AB-MECA (0.34 nM). Nonspecific binding was determined using a final concentration of 10 μM NECA diluted with the buffer. The mixtures were incubated at 25° C. for 60 min in a shaking water bath. Binding reactions were terminated by filtration through Brandel GF/B filters under a reduced pressure using a M-24 cell harvester (Brandel, Gaithersburg, MD). Filters were washed three times with 3 mL of 50 mM ice-cold Tris-HCl buffer (pH 7.5). Filters for A1 and A2AAR binding were placed in scintillation vials containing 5 mL of Hydrofluor scintillation buffer and counted using a Perkin Elmer Liquid Scintillation Analyzer (Tri-Carb 2810TR). Filters for A3AR binding were counted using a Packard Cobra II T-counter. The Ki values were determined using GraphPad Prism for all assays.
A3R binding of selected compounds. Using methods described herein, the affinity of selected compounds at the A3 receptor was measured.

Data set [3] concerns the target T2, A3 receptor in the mouse (Mus musculus, UniProt Q61618).
T2 sequence (Q61618 1-319): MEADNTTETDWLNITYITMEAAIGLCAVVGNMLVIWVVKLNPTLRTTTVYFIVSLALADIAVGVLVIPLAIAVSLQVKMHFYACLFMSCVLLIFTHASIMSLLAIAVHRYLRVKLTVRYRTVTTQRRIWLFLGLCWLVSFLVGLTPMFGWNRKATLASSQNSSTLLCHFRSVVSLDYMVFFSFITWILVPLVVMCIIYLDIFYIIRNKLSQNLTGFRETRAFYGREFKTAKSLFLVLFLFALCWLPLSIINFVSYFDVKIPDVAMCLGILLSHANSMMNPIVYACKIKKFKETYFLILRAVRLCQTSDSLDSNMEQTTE
Kind of data set: Affinity at the mouse A3 receptor. Type of data set: binding. On the procedure: Similar competition binding assays may be conducted using HEK293 cell membranes expressing mARs using [^125I]I-AB-MECA to label A1 or A3ARs and [3H]CGS21680 to label A2AARs. IC50 values were converted to Ki values using known methods. Nonspecific binding was determined in the presence of 100 μM NECA.

As to `CSc1nc(N)c2ncn([C@H]3[C@H](O)[C@H](O)[C@]4(CO)C[C@H]34)c2n1` [Compound I-1, (1R,2R,3S,4R,5S)-4-(6-Amino-2-(methylthio)-9H-purin-9-yl)-1-(hydroxymethyl)bicyclo[3.1.0]hexane-2,3-diol], the “free (unbound) fraction in brain” value in data set [1] (brain tissue) worked out at 0.13. In addition, in data set [1] (mouse models, from unbound fractions), the “fraction available to interact with the A3 receptor, relative to Cl-IB-IMECA” value is “at least 1000 fold”. In addition, the Ki in data set [2] amounted to 1490 nM; in data set [3] (mouse A3 receptor, read-out: affinity as agonist of the A3 receptor in the mouse), 4.9 µM. For the same compound, in data set [3] (I-1 versus Cl-IB-MECA), the “difference in affinity of I-1 and Cl-IB-MECA at mouse A3 receptor” value is listed as “approximately 25,000 fold”.
